These results are taken from ChEMBL document CHEMBL1201862, “PubChem BioAssay data set” (2004).

The source made the active and inactive calls.

One test has as its target Protein Wnt-3a (Mus musculus, UniProt P27467). Description: SAR analysis of small molecule antagonists of Gli-SUFU in a Wnt3a luminescent reporter assay. In kind it is functional.
Test [1] is described as follows: cells. In kind it is functional, cell-based.
The target in test [2] is T1, Trace amine-associated receptor 1 (Homo sapiens, UniProt Q96RJ0).
T1 sequence (Q96RJ0 whole entry): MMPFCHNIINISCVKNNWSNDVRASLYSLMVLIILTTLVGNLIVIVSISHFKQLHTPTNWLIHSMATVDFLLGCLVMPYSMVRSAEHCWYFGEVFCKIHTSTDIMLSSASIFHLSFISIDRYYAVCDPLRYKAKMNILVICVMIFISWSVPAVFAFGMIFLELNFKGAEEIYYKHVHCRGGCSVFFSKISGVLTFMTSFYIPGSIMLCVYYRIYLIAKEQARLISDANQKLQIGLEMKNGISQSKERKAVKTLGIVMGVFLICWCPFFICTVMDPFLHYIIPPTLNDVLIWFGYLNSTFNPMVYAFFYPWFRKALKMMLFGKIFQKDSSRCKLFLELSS
Description: Counterscreen for agonists of the human trace amine associated receptor 1 (hTAAR1): Fluorescence-based cell-based high throughput dose response assay to identify hTAAR1 agonist that also desensitize TAAR1 receptor response. The class given is functional.

Test [3] concerns the target T1, Trace amine-associated receptor 1. The test can be described thus: Fluorescence-based cell-based high throughput dose response assay to identify agonists of the human trace amine associated receptor 1 (TAAR1). In kind it is functional.
Test [4] can be described thus: cells. The class given is functional, cell-based. The source holds these as a separate data set.
Test [5] has as its target T2, Apoptotic protease-activating factor 1 (Homo sapiens, UniProt O14727).
T2 sequence (O14727 whole entry): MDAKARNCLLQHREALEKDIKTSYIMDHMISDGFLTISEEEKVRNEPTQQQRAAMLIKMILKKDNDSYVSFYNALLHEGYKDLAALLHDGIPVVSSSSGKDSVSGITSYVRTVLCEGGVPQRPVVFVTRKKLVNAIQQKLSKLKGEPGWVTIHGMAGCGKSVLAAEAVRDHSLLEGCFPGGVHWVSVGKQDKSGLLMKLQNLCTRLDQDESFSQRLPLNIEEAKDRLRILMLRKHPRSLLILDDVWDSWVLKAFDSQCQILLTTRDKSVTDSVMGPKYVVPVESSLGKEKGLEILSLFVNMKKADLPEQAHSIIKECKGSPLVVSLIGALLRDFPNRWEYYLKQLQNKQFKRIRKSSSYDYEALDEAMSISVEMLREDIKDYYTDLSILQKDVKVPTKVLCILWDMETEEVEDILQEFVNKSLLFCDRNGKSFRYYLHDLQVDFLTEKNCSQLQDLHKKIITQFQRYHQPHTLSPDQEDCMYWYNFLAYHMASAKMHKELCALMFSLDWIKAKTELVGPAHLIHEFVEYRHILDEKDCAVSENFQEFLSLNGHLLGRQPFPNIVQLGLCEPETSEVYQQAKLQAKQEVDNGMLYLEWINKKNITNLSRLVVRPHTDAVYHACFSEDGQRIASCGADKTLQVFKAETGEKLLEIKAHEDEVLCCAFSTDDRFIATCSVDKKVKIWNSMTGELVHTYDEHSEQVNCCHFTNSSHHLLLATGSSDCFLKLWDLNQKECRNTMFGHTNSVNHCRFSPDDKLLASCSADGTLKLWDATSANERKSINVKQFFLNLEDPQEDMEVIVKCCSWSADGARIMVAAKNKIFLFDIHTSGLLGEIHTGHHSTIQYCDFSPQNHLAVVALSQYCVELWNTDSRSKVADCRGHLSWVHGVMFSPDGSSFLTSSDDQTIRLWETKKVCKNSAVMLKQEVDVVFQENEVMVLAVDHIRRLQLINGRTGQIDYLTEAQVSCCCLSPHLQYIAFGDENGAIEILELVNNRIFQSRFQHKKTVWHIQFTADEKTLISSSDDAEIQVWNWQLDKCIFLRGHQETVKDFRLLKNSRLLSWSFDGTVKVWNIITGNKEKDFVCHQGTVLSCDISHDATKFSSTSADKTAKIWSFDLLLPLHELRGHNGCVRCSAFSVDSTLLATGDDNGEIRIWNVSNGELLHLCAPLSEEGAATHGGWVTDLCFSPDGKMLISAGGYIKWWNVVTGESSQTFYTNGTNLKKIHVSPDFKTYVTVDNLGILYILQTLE
In kind it is functional.

The target of a further test is T3, Protein RecA (Mycobacterium tuberculosis, UniProt P9WHJ3).
T3 sequence (P9WHJ3 whole entry): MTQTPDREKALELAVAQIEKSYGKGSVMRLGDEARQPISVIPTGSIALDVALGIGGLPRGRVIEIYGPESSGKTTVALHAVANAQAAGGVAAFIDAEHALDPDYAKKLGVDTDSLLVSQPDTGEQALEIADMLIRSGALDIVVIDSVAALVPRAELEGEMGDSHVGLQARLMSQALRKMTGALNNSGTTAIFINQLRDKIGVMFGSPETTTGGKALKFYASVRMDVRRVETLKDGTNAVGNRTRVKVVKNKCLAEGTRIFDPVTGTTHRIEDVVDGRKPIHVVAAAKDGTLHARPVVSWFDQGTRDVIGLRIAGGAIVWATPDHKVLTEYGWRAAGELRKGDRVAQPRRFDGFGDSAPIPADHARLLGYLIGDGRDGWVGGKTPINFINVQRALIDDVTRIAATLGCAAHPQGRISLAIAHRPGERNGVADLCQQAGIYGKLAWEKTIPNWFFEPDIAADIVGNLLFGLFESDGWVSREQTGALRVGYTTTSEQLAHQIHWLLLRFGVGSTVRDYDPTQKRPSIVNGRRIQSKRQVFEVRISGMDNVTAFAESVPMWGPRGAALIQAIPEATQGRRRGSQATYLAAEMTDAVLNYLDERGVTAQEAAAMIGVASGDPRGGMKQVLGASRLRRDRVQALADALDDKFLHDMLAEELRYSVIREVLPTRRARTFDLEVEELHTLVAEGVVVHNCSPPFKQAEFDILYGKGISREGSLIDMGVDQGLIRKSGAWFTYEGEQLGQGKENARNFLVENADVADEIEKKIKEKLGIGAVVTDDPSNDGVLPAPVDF
Description: Fluorescence Cell-Free Homogeneous Dose Retest to Identify Inhibitors of RecA-Intein Splicing Activity. [Related pubchem assays (depositor defined):AID2097, AID2223, AID489010, AID492950]. The class given is functional.

In test [6] the target is T4, Mitochondrial peptide methionine sulfoxide reductase (Bos taurus, UniProt P54149).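 Further: absorbance read-out, biochemical high-throughput dose-response screen for MsrA inhibitors, confirmatory; recombinant bovine MsrA coupled to E. coli TrxB with NADPH and selenocystamine; potency is for inhibitors of MsrA activity on DMSO substrate.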
T4 sequence (P54149 whole entry): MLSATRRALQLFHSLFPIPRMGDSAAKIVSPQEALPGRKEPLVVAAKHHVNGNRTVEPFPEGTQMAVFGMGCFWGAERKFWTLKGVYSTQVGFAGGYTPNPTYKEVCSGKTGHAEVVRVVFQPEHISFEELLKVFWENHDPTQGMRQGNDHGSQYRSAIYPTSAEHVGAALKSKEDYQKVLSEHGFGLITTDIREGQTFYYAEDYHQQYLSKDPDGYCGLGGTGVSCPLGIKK
In kind it is functional.

Test [7] addresses T5, Replicative DNA helicase DnaB (Mycobacterium tuberculosis, UniProt P9WMR3).
T5 sequence (P9WMR3 whole entry): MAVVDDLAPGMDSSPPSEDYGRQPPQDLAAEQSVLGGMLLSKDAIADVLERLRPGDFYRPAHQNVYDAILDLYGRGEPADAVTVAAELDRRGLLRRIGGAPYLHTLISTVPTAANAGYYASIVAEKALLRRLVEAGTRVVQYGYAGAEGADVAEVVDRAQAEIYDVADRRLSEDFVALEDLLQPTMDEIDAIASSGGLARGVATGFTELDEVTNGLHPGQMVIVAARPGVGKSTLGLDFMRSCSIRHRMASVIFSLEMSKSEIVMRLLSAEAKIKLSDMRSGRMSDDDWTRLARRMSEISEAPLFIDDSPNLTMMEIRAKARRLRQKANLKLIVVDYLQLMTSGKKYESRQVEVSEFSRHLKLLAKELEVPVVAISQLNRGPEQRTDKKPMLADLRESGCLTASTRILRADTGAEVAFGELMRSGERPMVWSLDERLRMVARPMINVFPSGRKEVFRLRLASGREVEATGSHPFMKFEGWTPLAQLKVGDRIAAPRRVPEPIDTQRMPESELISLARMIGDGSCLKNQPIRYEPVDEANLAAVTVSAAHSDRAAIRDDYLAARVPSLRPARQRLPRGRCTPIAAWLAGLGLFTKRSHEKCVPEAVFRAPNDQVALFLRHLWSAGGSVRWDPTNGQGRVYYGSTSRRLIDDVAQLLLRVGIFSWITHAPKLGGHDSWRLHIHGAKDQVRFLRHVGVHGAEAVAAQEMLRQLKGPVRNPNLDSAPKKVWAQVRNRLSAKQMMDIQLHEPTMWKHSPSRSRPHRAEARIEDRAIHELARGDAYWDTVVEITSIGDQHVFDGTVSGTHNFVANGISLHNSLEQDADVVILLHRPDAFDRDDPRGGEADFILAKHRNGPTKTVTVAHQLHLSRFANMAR
The test can be described thus: DnaB intein splicing inhibitors, dose response, biochemical, cell-free fluorescence (AID 449749). The class given is functional.

Test [8] has as its target T6, DNA repair protein RAD52 homolog (Homo sapiens, UniProt P43351).
T6 sequence (P43351 whole entry): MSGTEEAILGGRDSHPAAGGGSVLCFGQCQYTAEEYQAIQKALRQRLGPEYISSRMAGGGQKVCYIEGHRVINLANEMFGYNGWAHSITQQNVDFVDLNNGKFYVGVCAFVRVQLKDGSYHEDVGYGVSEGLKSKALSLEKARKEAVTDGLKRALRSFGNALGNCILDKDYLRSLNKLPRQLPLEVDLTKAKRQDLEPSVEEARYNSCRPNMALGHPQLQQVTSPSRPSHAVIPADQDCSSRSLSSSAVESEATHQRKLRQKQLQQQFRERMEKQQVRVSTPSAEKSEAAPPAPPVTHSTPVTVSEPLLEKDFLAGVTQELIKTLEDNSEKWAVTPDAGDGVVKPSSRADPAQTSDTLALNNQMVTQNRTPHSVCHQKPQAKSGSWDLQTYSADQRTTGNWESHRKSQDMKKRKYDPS
In kind it is functional, biochemical.

The target in the next test is Beta-galactosidase (Escherichia coli, UniProt Q8VNN2). Description: Dose response counterscreen for EBI2 assay utilizing the enzyme, b-galactosidase. In kind it is functional. (The purpose of a counterscreen is to sort out artefacts and off-target activity.)
The target of test [9] is T7, Heat shock factor protein 1 (Mus musculus, UniProt P38532).
T7 sequence (P38532 whole entry): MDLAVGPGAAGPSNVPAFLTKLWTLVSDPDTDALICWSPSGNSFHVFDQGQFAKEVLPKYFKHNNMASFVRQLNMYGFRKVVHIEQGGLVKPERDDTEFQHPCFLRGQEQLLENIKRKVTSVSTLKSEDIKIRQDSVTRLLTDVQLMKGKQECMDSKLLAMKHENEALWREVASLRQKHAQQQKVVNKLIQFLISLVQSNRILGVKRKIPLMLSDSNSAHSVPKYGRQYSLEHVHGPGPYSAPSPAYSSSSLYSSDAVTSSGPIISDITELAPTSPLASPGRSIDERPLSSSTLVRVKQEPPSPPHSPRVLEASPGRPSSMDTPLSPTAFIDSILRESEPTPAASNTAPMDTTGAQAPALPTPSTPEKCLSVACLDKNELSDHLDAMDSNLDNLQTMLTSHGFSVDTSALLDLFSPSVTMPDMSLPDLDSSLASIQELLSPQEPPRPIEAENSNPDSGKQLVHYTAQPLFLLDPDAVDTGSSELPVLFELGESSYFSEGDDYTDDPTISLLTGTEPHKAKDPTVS
Description: enhancement of HSF1-driven luciferase signal – cell-based, NIH3T3, luminescence, dose retest, confirmation (AID 435004).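 Further: stress induced by proteasome inhibitor MG132 added 30 min after compound; luciferase reporter driven by HSF1 response element in NIH3T3 cells; actives raise luminescence as potentiators of the MG132 stress response.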 The class given is functional.

Beta-galactosidase, sequence (Q8VNN2 whole entry): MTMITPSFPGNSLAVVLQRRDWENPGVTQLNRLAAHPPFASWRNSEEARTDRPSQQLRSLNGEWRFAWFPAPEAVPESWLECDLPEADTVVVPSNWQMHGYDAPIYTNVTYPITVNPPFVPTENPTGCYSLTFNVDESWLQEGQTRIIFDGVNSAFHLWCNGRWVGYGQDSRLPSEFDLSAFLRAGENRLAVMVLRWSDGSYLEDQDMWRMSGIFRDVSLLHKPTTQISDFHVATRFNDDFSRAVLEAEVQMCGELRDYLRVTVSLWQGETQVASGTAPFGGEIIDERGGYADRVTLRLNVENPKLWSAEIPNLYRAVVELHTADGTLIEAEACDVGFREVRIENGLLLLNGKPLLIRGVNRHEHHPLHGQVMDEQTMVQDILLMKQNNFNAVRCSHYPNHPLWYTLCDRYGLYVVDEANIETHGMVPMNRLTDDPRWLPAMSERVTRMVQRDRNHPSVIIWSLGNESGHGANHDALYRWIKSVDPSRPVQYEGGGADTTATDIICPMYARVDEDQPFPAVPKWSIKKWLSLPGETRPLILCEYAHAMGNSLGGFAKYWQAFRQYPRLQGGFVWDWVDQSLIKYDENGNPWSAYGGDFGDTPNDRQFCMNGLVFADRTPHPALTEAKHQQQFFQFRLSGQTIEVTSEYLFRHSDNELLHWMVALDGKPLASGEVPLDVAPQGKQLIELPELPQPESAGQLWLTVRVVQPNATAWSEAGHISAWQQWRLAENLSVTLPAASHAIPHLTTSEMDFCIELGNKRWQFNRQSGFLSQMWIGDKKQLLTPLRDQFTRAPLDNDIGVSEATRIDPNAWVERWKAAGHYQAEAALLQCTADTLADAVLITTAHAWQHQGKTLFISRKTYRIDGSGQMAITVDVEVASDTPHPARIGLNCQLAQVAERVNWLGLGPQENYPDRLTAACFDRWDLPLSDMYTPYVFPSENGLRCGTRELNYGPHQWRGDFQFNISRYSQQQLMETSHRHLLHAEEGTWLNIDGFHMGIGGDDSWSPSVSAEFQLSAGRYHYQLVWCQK
Protein Wnt-3a, sequence (P27467 whole entry): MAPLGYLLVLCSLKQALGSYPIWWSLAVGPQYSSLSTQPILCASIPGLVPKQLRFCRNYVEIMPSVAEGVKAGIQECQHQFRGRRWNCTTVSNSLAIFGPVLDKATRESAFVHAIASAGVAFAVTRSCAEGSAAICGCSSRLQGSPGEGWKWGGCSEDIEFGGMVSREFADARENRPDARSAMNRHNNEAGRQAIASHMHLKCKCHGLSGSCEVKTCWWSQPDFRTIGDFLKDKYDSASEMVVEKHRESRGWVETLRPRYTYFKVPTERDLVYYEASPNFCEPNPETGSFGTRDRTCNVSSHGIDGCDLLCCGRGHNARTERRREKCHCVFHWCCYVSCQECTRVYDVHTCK

As for `O=C(Nc1cc(N2CCCCC2)ncn1)c1ccsc1`, the IC50 (in general, the midpoint of a concentration-inhibition curve) at Protein Wnt-3a was > 21.8 µM (inactive).
Regarding `Cn1c(=O)c(=O)n(C)c2cc(S(=O)(=O)NCCc3ccccc3)ccc21`, the values for the IC50 (in “cells [1]”; in [2]) were > 29.9 µM (inactive) and 8.95 µM (active), respectively. Further, the EC50 – broadly, the concentration giving half of the maximal effect – in test [3] was 2.21 µM (active); in “cells [4]”, > 29.9 µM (inactive).
`O=C(O)c1cccc(NC2=C(n3nnc4ccccc43)C(=O)c3ccccc3C2=O)c1`: the IC50 in test [5] is 10.9 µM (active); in test [6], 31.4 µM (inactive). Moreover, the EC50 on Protein RecA is 2.26 µM (active). Further, the AC50 (as a rule, the concentration giving half of the maximal activity seen) in test [7] is 2.53 µM (active).
For the compound `CCn1c(C)nc2cc(C(=O)NNC(=O)Nc3ccc(Cl)cc3)ccc21`, the IC50 (in “cells [1]”; in test [2]) was > 29.9 µM (inactive) throughout. Besides, the EC50 (in [3]; in “cells [4]”) was > 29.9 µM (inactive) each time.
For `CCCCCCCCCCCCCCCC[n+]1ccccc1`, the AC50 in test [8] was 4.21 µM (active).
`Cc1nc(NC(=O)c2ccccc2)cc(N2CCCC2)n1`: the IC50 at Protein Wnt-3a is > 21.8 µM (inactive).
As for `CC(=NCCc1ccccc1)C1=C(O)OCC1`, the values for the IC50 (in “cells [1]”; in [2]) were > 30 µM (inactive) and 2.35 µM (active), respectively. Also, the values for the EC50 (in test [3]; in the test “cells [4]”) were 0.65 µM (active) and > 30 µM (inactive), respectively.
As for `O=C(CSc1ccc(Cl)cc1)N1CCN(c2c(Cl)cccc2[N+](=O)[O-])CC1`, the IC50 on Beta-galactosidase was > 80 µM (inactive). Besides, the EC50 in test [9] is 14.8 µM (active).
As for `Cc1ccc(Nc2ccc(C(=O)NC3CCCCC3)cn2)cc1`, the IC50 on Beta-galactosidase was > 80 µM (inactive).
Take `CCN(CC)c1cc(NC(=O)c2cccc(F)c2)ncn1`: the IC50 at Protein Wnt-3a was > 21.8 µM (inactive).
`CCOC(=O)N1CCN(C(=O)c2cc3c(s2)-c2c(C)cccc2OC3)CC1`: the IC50 at Beta-galactosidase was > 80 µM (inactive).
